One data set deals with ACE. The note with it: cited from earlier work. An excerpt:
ACE inhibitors (ACEIs) inhibit ACE activity and reduce blood pressure by inhibiting the synthesis of angiotensin II or promoting the release of bradykinin. Although ACEIs, such as enalapril, captopril, and lisinopril, are widely used in hypertension treatments, synthetic ACEIs have a series of negative effects, including hypotension, cough, increased potassium levels and, angioedema. Consequently, the development of safe and effective antihypertensive drugs is important, and due to antihypertensive effects and safety, there has been an increasing interest in food-derived ACE inhibito ...

The target in data set [1] is T1, ACE (from rabbit lung) (Oryctolagus cuniculus, UniProt P12822).
T1 construct: ACE (from rabbit lung); purchased Sigma Chemical Co. (St. Louis, MO, USA); host or cells: rabbit lung tissue
T1 sequence (P12822 34-1310): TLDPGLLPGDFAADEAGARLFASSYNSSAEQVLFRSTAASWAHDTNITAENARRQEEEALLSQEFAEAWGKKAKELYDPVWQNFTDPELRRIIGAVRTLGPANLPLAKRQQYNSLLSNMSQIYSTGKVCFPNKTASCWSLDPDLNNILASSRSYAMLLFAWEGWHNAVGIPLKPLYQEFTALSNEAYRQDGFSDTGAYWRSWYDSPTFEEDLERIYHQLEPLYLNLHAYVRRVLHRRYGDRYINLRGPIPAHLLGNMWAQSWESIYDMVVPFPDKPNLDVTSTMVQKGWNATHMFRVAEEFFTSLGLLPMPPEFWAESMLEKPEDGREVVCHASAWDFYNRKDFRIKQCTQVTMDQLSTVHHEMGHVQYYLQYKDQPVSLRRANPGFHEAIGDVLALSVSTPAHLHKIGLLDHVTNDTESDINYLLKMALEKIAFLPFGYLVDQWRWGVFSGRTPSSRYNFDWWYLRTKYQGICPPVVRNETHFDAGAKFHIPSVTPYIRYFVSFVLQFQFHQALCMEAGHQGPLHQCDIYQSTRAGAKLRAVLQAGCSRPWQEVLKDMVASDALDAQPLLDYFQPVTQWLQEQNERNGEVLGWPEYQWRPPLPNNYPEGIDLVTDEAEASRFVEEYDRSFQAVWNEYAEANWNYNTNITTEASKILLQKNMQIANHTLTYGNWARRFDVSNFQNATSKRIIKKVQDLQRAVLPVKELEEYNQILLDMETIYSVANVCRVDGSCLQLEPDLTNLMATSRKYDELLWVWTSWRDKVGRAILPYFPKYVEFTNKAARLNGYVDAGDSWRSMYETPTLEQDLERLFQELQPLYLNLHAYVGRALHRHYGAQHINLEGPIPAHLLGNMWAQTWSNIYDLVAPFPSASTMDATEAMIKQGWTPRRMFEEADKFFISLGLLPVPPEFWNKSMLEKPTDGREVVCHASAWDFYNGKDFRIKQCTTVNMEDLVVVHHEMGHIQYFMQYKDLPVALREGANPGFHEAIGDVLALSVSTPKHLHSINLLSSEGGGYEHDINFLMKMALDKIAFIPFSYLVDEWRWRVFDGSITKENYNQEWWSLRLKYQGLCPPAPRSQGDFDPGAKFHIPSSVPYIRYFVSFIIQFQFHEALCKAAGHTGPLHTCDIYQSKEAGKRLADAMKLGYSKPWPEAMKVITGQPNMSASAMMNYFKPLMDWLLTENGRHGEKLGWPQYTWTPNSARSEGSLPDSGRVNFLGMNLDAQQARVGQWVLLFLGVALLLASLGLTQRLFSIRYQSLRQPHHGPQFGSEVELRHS
Kind of data set: ACE inhibition and IC50 assay (FAPGG substrate). It counts as biochemical. As to the method:
(§1) ACE inhibition was examined according to Shalaby et al. and Henda et al., with slight modifications. FAPGG and ACE were dissolved in 50 mM Tris-HCl (pH 7.5) containing 300 mM NaCl. A sample solution (40 μL) was mixed with 100 μL of 0.88 mM FAPGG solution, and the mixture was incubated at 37 °C for 5 min. To start the reaction, 60 μL of ACE solution (0.20 U/mL) was added; absorbance was measured at 340 nm and recorded every 1 min for 30 min using a SpectraMax 190 absorbance microplate reader (Molecular Devices, Sunnyvale, USA). The slope averaged over a linear interval of 10–30 min was taken as a measure of the ACE inhibitory activity. The degree of ACE inhibition was calculated according to the following equation: ACE inhibition rate (%) = [1 − (slope inhibitior/slope control)] × 100(2)
The activity of each sample was tested in triplicate. The IC50 value, the concentration of peptide required to reduce ACE activity by 50%, was determined by regression analysis of ACE inhibition (%) vs. peptide concentration.

The target in data set [2] is T1, ACE (from rabbit lung). Kind of data set: In vitro simulated gastrointestinal digestion (pepsin, then trypsin) followed by ACE inhibitory activity assay. The following applies: for stability for pepsin and trypsin digestion: in vitro digestion, read-out ACE inhibitory activity. It counts as in vitro ADME. As to the method: as §1
In vitro digestion was performed according to the method of Cing et.al. The purified peptide sample was mixed with 0.1 M phosphate buffer (pH 2.0) and pepsin (E/S 4%, w/w); the reaction was allowed to proceed for 2 h at 37 °C and stopped by heating at 100 °C for 10 min. Subsequently, the remaining suspension was adjusted to pH 8.0 with 5 M NaOH solution and further digested with trypsin (E/S 4%, w/w); the solution was incubated at 37 °C for 2 h and then heated at 100 °C for 10 min. The protein hydrolysate was centrifuged at 8000 rpm/min for 15 min, and the supernatant was assayed for ACE inhibitory activity.

Data set [3] concerns the target T2, Angiotensin I-converting enzyme (from rabbit lung) (rabbit) (UniProt P12822).
T2 sequence: T1 sequence (P12822 34-1310)

Data set [4] deals with T2, Angiotensin I-converting enzyme (from rabbit lung) (rabbit). This is another data set of the same source.
Where [5] appears, read: peptides from Porphyra yezoensis.
The mark [6] stands for this setting: peptides from Undaria pinnatifida.
[7] abbreviates: peptides purified from Ulva rigida protein hydrolysate.
Setting [8] is: peptides identified in fraction C2-8, FAPGG 0.88 mM, ACE 0.20 U/mL, 50 mM Tris-HCl pH 7.5, 300 mM NaCl, 37 °C, absorbance 340 nm, tested in triplicate.
[9] abbreviates: purified ACE inhibitors, same values as in μM given in mg/mL.
Setting [10] is: pH 2, synthetic peptide at 0.2 mg/mL, after pepsin hydrolysis for 2 h (0.1 M phosphate buffer pH 2.0, E/S 4% w/w, 37 °C).
Setting [11] is: synthetic peptide at 0.2 mg/mL, Control (no digestion).
The mark [12] stands for this setting: synthetic peptide at 0.2 mg/mL, pepsin hydrolysis for 2 h (pH 2.0, 37 °C) followed by trypsin hydrolysis for 2 h (pH 8.0, 37 °C), E/S 4% w/w each.

Like-named read-outs stand apart in the source and are kept apart here. Ends that are not written are not given here.

As a reminder, the IC50 is the concentration at which inhibition is half-maximal. As for Met-Lys-Tyr, in the data set with ACE (setting [5]), the 50% inhibitory concentration (IC50) is 7.26 µM.
For Leu-Arg-Tyr, the IC50 in the data set on ACE (setting [5]) was 5.06 µM.
For Ala-Ile-Tyr-Lys, in the data set on ACE (setting [6]), the 50% inhibitory concentration (IC50) is 213 µM.
As to Ala-Phe-Leu, the 50% inhibitory concentration (IC50) in the data set on ACE (setting [7]) is 65.8 µM.
As to Ile-Pro, in the data set with ACE (setting [7]), the IC50 is 87.6 µM.
As for Ile-Tyr, in the data set on ACE (setting [5]), the IC50 was 2.69 µM.
Turning to Tyr-Lys-Tyr-Tyr, in the data set with ACE (setting [6]), the 50% inhibitory concentration (IC50) is 64.2 µM.
As a reminder, the inhibition is the percentage by which the read-out fell short of the control. A low value points to a response near the control. For the molecule “FGMPLDR [FGMPLDR, Phe-Gly-Met-Pro-Leu-Asp-Arg]”, the IC50 against ACE (from rabbit lung) [1] (setting [8]) and on ACE (from rabbit lung) [1] (setting [9]) was 219 µM each time. For the same molecule, the “stability for pepsin and trypsin digestion” value at ACE (from rabbit lung) [2] is on record as “good stability”. Further, the inhibition at 200 µg/mL is 52.98 ± 0.19% at ACE (from rabbit lung) [2] (setting [10]), 50.07 ± 0.07% on ACE (from rabbit lung) [2] (setting [11]) and 51.32 ± 0.02% at ACE (from rabbit lung) [2] (setting [12]).
As to Lys-Phe-Tyr-Gly, the IC50 with ACE (setting [6]) was 90.5 µM.
Consider Tyr-Asn-Lys-Leu, for which the concentration for half-maximal inhibition (IC50) with ACE (setting [6]) was 21 µM.
“MELVLR [MELVLR, Met-Glu-Leu-Val-Leu-Arg]”: the IC50 against ACE (from rabbit lung) [1] (setting [8]) is 237 µM; at ACE (from rabbit lung) [1] (setting [9]), 236 µM. In addition, on ACE (from rabbit lung) [2], the “stability for pepsin and trypsin digestion” value is listed as “good stability”. For the same molecule, the inhibition at 200 µg/mL was 56.84 ± 0.04% against ACE (from rabbit lung) [2] (setting [10]), 59.92 ± 0.04% at ACE (from rabbit lung) [2] (setting [11]) and 58.63 ± 0.13% against ACE (from rabbit lung) [2] (setting [12]).
Consider Gln-Val-Glu-Tyr, for which the IC50 with ACE (peptide from hydrolyzed Gracilariopsis lemaneiformis) is 474 µM.
Ala-Lys-Tyr-Ser-Tyr: the IC50 in the data set with ACE (setting [5]) was 1.52 µM.
Molecule MELVLR [Met-Glu-Leu-Val-Leu-Arg] showed an IC50 of ACE inhibition (hydrolysis of FAPGG by ACE, absorbance at 340 nm, 37 °C, 50 mM Tris-HCl pH 7.5, 300 mM NaCl) in data set [3] of 237 μM. In addition, in data set [4], the ACE Inhibitory Activity (%) of the synthetic peptide at 0.2 mg/mL, after pepsin hydrolysis for 2 h came out at 56.8%; the ACE Inhibitory Activity (%) of the synthetic peptide at 0.2 mg/mL, after pepsin hydrolysis for 2 h followed by trypsin hydrolysis for 2 h was 58.6%; the ACE Inhibitory Activity (%) of the synthetic peptide at 0.2 mg/mL, control (not digested) stood at 59.9%.
For FGMPLDR [Phe-Gly-Met-Pro-Leu-Asp-Arg], in data set [3], the IC50 of ACE inhibition (hydrolysis of FAPGG by ACE, absorbance at 340 nm, 37 °C, 50 mM Tris-HCl pH 7.5, 300 mM NaCl) was 219 μM. In data set [4], this molecule gave an ACE Inhibitory Activity (%) of the synthetic peptide at 0.2 mg/mL, after pepsin hydrolysis for 2 h of 53%; an ACE Inhibitory Activity (%) of the synthetic peptide at 0.2 mg/mL, after pepsin hydrolysis for 2 h followed by trypsin hydrolysis for 2 h of 51.3%; an ACE Inhibitory Activity (%) of the synthetic peptide at 0.2 mg/mL, control (not digested) of 50.1%.

The record behind these values is paper PMC6471128, “Preparation and Identification of ACE Inhibitory Peptides from the Marine Macroalga Ulva intestinalis” (Marine Drugs, 2019).
